Converted amounts (≈) assume the structure as drawn.
Tests used:
[1] = Drug metabolism in human liver microsomes assessed as oxidation of imdazopyridine core at 10 uM after 60 mins by LC/MS/MS analysis; assay type: ADME; settings: 1 h
P2X purinoceptor 7 = target: T1, P2X purinoceptor 7 (Mus musculus, UniProt Q9Z1M0); test: Antagonist activity at recombinant mouse P2X7 receptor expressed in human 1321N1 cells assessed as inhibition of Bz-ATP-induced Ca2+ flux preincubated for 30 mins followed by agonist addition measured after 180 sec by calcium-4 dye based FLIPR assay; assay type: cell-based
T1 sequence (Q9Z1M0 whole entry): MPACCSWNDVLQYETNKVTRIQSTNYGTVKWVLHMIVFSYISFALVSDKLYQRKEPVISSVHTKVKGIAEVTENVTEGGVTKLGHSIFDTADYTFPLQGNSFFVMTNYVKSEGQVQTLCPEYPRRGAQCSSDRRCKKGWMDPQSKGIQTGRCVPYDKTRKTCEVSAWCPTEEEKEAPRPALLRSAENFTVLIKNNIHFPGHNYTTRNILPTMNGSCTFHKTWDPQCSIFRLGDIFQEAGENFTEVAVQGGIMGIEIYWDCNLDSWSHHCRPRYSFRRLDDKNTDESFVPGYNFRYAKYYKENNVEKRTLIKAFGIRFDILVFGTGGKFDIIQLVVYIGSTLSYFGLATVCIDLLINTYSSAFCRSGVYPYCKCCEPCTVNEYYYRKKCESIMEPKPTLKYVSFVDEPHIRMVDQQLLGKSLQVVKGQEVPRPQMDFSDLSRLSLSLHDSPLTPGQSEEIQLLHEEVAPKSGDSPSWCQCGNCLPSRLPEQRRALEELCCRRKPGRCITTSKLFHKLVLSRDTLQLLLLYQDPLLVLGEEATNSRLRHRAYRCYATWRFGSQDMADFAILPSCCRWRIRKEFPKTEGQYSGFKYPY

[2] = Protein binding in human plasma at 1 uM after 6 hrs by LC/MS/MS based equilibrium dialysis method; assay type: ADME, cell-free; settings: read-out: PPB (converted)
[3] = Drug metabolism in human liver microsomes assessed as oxidation of fluoropyridine substituent at 10 uM after 60 mins by LC/MS/MS analysis; assay type: ADME; settings: 1 h
Rattus norvegicus [4] = test: Ex vivo receptor occupancy at P2X7 receptor in po dosed rat brain hippocampal tissue assessed as plasma concentration required for [3H]-(S)-7-(2-chloro-3-(trifluoromethyl)benzyl)-6-methyl-3-(pyrazin-2-yl)-6,7-dihydro-[1,2,4]triazolo[4,3-a]pyrazin-8(5H)-one displacement after 30 mins; assay type: functional, organism-based
Rattus norvegicus [5] = test: Ex vivo receptor occupancy at P2X7 receptor in po dosed rat brain hippocampal section assessed as displacement of [3H]-(S)-7-(2-chloro-3-(trifluoromethyl)benzyl)-6-methyl-3-(pyrazin-2-yl)-6,7-dihydro-[1,2,4]triazolo[4,3-a]pyrazin-8(5H)-one after 30 mins; assay type: functional
Rattus norvegicus [6] = test: Ex vivo receptor occupancy at P2X7 receptor in po dosed rat brain hippocampal tissue assessed as brain concentration required for [3H]-(S)-7-(2-chloro-3-(trifluoromethyl)benzyl)-6-methyl-3-(pyrazin-2-yl)-6,7-dihydro-[1,2,4]triazolo[4,3-a]pyrazin-8(5H)-one displacement after 30 mins; assay type: functional, organism-based
[7] = Cmax in Beagle dog at 5 mg/kg, po after 0.033 to 24 hrs by LC/MS/MS analysis; assay type: ADME, organism-based, Canis lupus familiaris; parameters: dose 5 mg/kg, route oral; settings: in vivo
[8] = Oral bioavailability in cynomolgus monkey at 5 mg/kg after 0.033 to 24 hrs by LC/MS/MS analysis; assay type: ADME, organism-based, Macaca fascicularis; settings: in vivo
CYP3A4 [9] = target: T2, CYP3A4 (Homo sapiens, UniProt P08684); test: Inhibition of CYP3A4 in human liver microsomes using midazolam as substrate assessed as reduction in 1-OH-midazolam formation at 2.5 uM by LC/MS/MS analysis; assay type: ADME; settings: probe midazolam
T2 sequence (P08684 whole entry): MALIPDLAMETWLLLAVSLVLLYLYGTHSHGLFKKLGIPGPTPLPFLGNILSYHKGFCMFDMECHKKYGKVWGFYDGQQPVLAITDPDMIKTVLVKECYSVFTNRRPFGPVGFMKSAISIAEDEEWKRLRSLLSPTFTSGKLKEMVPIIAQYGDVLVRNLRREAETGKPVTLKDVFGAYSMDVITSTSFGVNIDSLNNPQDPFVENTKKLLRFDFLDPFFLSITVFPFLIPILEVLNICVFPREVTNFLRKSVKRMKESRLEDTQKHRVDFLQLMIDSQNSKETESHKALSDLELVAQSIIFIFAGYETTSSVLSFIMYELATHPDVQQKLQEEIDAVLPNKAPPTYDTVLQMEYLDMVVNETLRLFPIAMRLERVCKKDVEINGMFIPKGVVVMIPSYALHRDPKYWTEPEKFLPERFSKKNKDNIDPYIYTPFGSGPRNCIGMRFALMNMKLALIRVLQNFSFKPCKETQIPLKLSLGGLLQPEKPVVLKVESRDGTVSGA

CYP3A4 [10] = target: T2, CYP3A4; test: Inhibition of CYP3A4 in human liver microsomes using midazolam as substrate assessed as reduction in 1-OH-midazolam formation at 5 uM by LC/MS/MS analysis; assay type: ADME; settings: probe midazolam
[11] = Permeability from apical to basolateral side in human Caco2 cells at 10 uM after 60 mins by LC/MS/MS analysis; assay type: ADME, cell-based; settings: Caco-2, read-out: permeability

Drug metabolism [1]: Metabolite_Detected | IC50 (P2X purinoceptor 7): 72 nM | fraction unbound at 6 h, 1 µM [2]: 0.055 | Drug metabolism [3]: Metabolite_Notdetected | EC50 (Rattus norvegicus [4]; Rattus norvegicus, P2X7, Brain/Plasma): 0.125 µg/mL (≈ 0.285 µM) | inhibition (Rattus norvegicus [5]): Dose-dependent effect | EC50 (Rattus norvegicus [6]; Rattus norvegicus, P2X7): 0.362 µg/mL (≈ 0.825 µM) | Cmax [7]: 1250 ng/mL | bioavailability [8]: 54% | inhibition at 2.5 µM (CYP3A4 [9]): 52% | inhibition at 5 µM (CYP3A4 [10]): 63% | Papp A→B at 1 h, 10 µM [11]: 65 ×10⁻⁶ cm/s
Structure (SMILES): C[C@@H]1c2ncn(-c3ccc(F)cn3)c2CCN1C(=O)c1cccc(C(F)(F)F)c1Cl
fIC50 (Rattus norvegicus [4]): 15 nM | ED50 (Rattus norvegicus [5]): 2.3 mg/kg | fIC50 (Rattus norvegicus [6]): 12 nM
